Data taken from ChEMBL document CHEMBL1129603, “Synthesis and biological activity of metabolites of the antidiabetic, antihyperglycemic agent pioglitazone” (1996).

species on record: Mus musculus; experiment: Compound was evaluated for Antihyperglycemic activity in KKAy mice, glucose level for the treated group (T) over the anti-hyperglycaemic activity; type: functional

SMILES	T/C
CC(=O)c1ccc(CCOc2ccc(CC3SC(=O)NC3=O)cc2)nc1 (stereo unspecified)	0.74
CCc1ccc(C(O)COc2ccc(CC3SC(=O)NC3=O)cc2)nc1 (stereo unspecified)	0.78
O=C(O)Cc1ccc(CCOc2ccc(CC3SC(=O)NC3=O)cc2)nc1 (stereo unspecified)	0.91
CC(O)c1ccc(CCOc2ccc(CC3SC(=O)NC3=O)cc2)nc1 (stereo unspecified) [LERIGLITAZONE]	0.74
CCc1ccc(C(=O)COc2ccc(CC3SC(=O)NC3=O)cc2)nc1 (stereo unspecified) [MITOGLITAZONE]	0.39
CCc1ccc(CCOc2ccc(CC3SC(=O)NC3=O)cc2)nc1 (stereo unspecified) [PIOGLITAZONE]	0.49
